Results: patent US20170007615A1, “Antibacterial Compounds” (priority 2014, published 2017)
Values after ≈ are worked out from the molar mass of the structure shown.

Tests used:
S. aureus (ATCC 29213) = experiment: Antibacterial activity (MIC), Gram-positive type strain; format: cell-based, Staphylococcus aureus; details: Staphylococcus aureus, ATCC29213; Table 13
E. faecalis (ATCC 29212) = experiment: as above; format: cell-based, Enteroccocus faecalis; details: Enterococcus faecalis, ATCC29212; Table 13
[1] = test system: H. influenzae (ATCC 49247); experiment: Antibacterial activity (MIC), Gram-negative type strain; format: cell-based, Haemophilus influenzae; details: Haemophilus influenzae, ATCC49247; Table 13
[2] = test system: N. gonorrheae (ATCC 49226); experiment: as above; format: cell-based, Neisseria gonorrhoeae; details: Neisseria gonorrhoeae, ATCC49226; Table 13
E. coli (ATCC 25922) [3] = details: Table 1; (b) No effect
E. coli (ATCC 25922) [4] = experiment: microbe, parasite or virus in culture; details: Escherichia coli, ATCC25922, read-out: MIC Compound alone, Table 1

SMILES	MIC (S. aureus (ATCC 29213)) [µg/mL]	MIC (E. faecalis (ATCC 29212)) [µg/mL]	MIC [1] [µg/mL]	MIC [2] [µg/mL]	MIC of Compound (μg/ml) in the presence of PMBN (128 μg/ml) (E. coli (ATCC 25922) [3]) [µg/mL]	MIC (E. coli (ATCC 25922) [4]) [µg/mL]
CCNC(=O)Nc1nc2cc(-c3cnc(NS(=O)(=O)N4CCCC4)nc3)cc(-c3ccc(C)cn3)c2s1 [Compound A-11, 1-Ethyl-3-[7-(5-methyl-2-pyridyl)-5-[2-(pyrrolidin-1-ylsulfonylamino)pyrimidin-5-yl]-1,3-benzothiazol-2-yl]urea]	0.004 (≈ 0.00743 µM)	≤ 0.008	0.06 (≈ 0.111 µM)	0.015 (≈ 0.0278 µM)	0.015	2 (≈ 3.71 µM)
CCNC(=O)Nc1nc2cc(-c3cnc(NS(=O)(=O)N4CCC(O)C4)nc3)cc(-c3ccc(C)cn3)c2s1 (stereo not drawn) [Compound A-54, N-(5-(2-(3-ethylureido)-7-(5-methylpyridin-2-yl)benzo[d]thiazol-5-yl)pyrimidin-2-yl)-3-hydroxypyrrolidine-1-sulfonamide]	0.12 (≈ 0.216 µM)	≤ 0.008	0.03 (≈ 0.0541 µM)	≤ 0.008		
CCNC(=O)Nc1nc2cc(-c3cnc(N4CCCS4(=O)=O)nc3)cc(-c3ccc(C)cn3)c2s1 [Compound A-28, 1-(5-(2-(1,1-dioxidoisothiazolidin-2-yl)pyrimidin-5-yl)-7-(5-methylpyridin-2-yl)benzo[d]thiazol-2-yl)-3-ethylurea]	0.03 (≈ 0.0589 µM)	0.015 (≈ 0.0294 µM)	0.12 (≈ 0.235 µM)	0.03 (≈ 0.0589 µM)		
CCNC(=O)Nc1nc2cc(-c3cnc(NS(=O)(=O)N4CCOCC4)nc3)cc(-c3ccc(C)cn3)c2s1 [Compound A-44, N-(5-(2-(3-ethylureido)-7-(5-methylpyridin-2-yl)benzo[d]thiazol-5-yl)pyrimidin-2-yl)morpholine-4-sulfonamide]	0.03 (≈ 0.0541 µM)	≤ 0.008	0.03 (≈ 0.0541 µM)	≤ 0.008		
CCNC(=O)Nc1nc2cc(-c3cnc(N4CCCCS4(=O)=O)nc3)cc(-c3ccccn3)c2s1 [Compound A-24, 1-(5-(2-(1,1-dioxido-1,2-thiazinan-2-yl)pyrimidin-5-yl)-7-(pyridin-2-yl)benzo[d]thiazol-2-yl)-3-ethyl-urea]	0.06 (≈ 0.118 µM)	0.03 (≈ 0.0589 µM)	0.5 (≈ 0.981 µM)	0.12 (≈ 0.235 µM)		
CCCS(=O)(=O)Nc1ncc(-c2cc(-c3ccc(C)cn3)c3sc(NC(=O)NCC)nc3c2)cn1 [Compound A-12, 1-Ethyl-3-[7-(5-methyl-2-pyridyl)-5-[2-(propylsulfonylamino)pyrimidin-5-yl]-1,3-benzothiazol-2-yl]urea]	≤ 0.002	≤ 0.008	0.015 (≈ 0.0293 µM)	≤ 0.008	0.008	2 (≈ 3.91 µM)
CCNC(=O)Nc1nc2cc(-c3cnc(NS(=O)(=O)C4CC4)nc3)cc(-c3ccccn3)c2s1 [Compound A-34, N-(5-(2-(3-ethylureido)-7-(pyridin-2-yl)benzo[d]thiazol-5-yl)pyrimidin-2-yl)cyclopropanesulfonamide]	0.25 (≈ 0.504 µM)	0.015 (≈ 0.0303 µM)	0.12 (≈ 0.242 µM)	0.015 (≈ 0.0303 µM)		
CCNC(=O)Nc1nc2cc(-c3cnc(NS(=O)(=O)c4ccccc4C(=O)O)nc3)cc(-c3ccccn3)c2s1 [Compound A-10, 2-[[5-[2-(Ethylcarbamoylamino)-7-(2-pyridyl)-1,3-benzothiazol-5-yl]pyrimidin-2-yl]sulfamoyl]benzoic acid]	2 (≈ 3.47 µM)	0.5 (≈ 0.869 µM)	4 (≈ 6.95 µM)	0.25 (≈ 0.434 µM)	4	> 64
CCNC(=O)Nc1nc2cc(-c3cnc(NS(=O)(=O)c4ccccc4)nc3)cc(-c3ccc(C)cn3)c2s1 [Compound A-51, N-(5-(2-(3-ethylureido)-7-(5-methylpyridin-2-yl)benzo[d]thiazol-5-yl)pyrimidin-2-yl)benzenesulfonamide]	0.015 (≈ 0.0275 µM)	0.008 (≈ 0.0147 µM)	0.015 (≈ 0.0275 µM)	≤ 0.008		
